These are literature values, as cited in patent publication US20060270013A1 (priority 2003, published 2006).

This series addresses NADPH-dependent benzil reductase (Bacillus cereus, UniProt Q8RJB2). The settings on record: substrate of benzil reductase; Maruyama et al. 2002.

Sequence of NADPH-dependent benzil reductase (Q8RJB2 whole entry): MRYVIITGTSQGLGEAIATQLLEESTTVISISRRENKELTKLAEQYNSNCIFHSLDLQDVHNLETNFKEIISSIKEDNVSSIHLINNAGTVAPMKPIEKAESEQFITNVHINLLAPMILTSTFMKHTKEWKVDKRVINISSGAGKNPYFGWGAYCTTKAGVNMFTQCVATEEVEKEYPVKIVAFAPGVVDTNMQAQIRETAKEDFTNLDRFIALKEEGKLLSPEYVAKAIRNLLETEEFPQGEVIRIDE

Regarding `CC(=O)C(=O)c1ccccc1` [1-phenyl-1,2-propanedione], the Km – broadly, the substrate concentration at which the rate is half of its maximum – was 42 µM and the catalytic constant (kcat) (commonly the maximal rate divided by the concentration of active sites) is 2.75 s⁻¹.

As for `O=Cc1ccc([N+](=O)[O-])cc1` [p-nitrobenzaldehyde], the Km is 261 µM and the kcat is 0.02 s⁻¹.
